This is an account of results in ChEMBL document CHEMBL1201861, “Genomics of Drug Sensitity in Cancer screening data, Wellcome Trust Sanger Institute”.

One test relates to COLO-824. Kind of test: cells. The following applies: Homo sapiens, COLO-824. Format: functional, cell-based, Homo sapiens.
Another test deals with CP66-MEL. Put plainly: cells. Format: functional, cell-based, Homo sapiens. Conditions: Homo sapiens, CP66-MEL.
Another test concerns DMS-79. Put plainly: cells. Format: functional, cell-based, Homo sapiens. The following applies: Homo sapiens, DMS-79.
The test system of the next test is DU-4475. Kind of test: cells. Format: functional, cell-based, Homo sapiens. The following applies: Homo sapiens, DU-4475.
Another test concerns ES1. Kind of test: cells. Format: functional, cell-based, Homo sapiens. The following applies: Homo sapiens, ES1.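 Note: growth inhibition of ES1 cells, read out with a cell viability assay.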
The subject of the next test is ES3. Kind of test: cells. Format: functional, cell-based, Homo sapiens. The following applies: Homo sapiens, ES3.
Another test concerns HCC2218. Put plainly: cells. Format: functional, cell-based, Homo sapiens. The following applies: Homo sapiens, HCC2218.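 Note: cell viability assay read-out, with IC50 given as the concentration that inhibits growth of the cell line.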
A further test deals with HL-60. Kind of test: cells. Format: functional, cell-based, Homo sapiens. The following applies: Homo sapiens, HL-60.
The next test relates to LAMA-84. Kind of test: cells. Format: functional, cell-based, Homo sapiens. Conditions: Homo sapiens, LAMA-84.
Another test concerns LB996-RCC. Put plainly: cells. Format: functional, cell-based, Homo sapiens. The following applies: Homo sapiens, LB996-RCC.
The subject of another test is LU-165. Kind of test: cells. Format: functional, cell-based, Homo sapiens. Conditions: Homo sapiens, LU-165.
The subject of another test is Lu-65. Put plainly: cells. Format: functional, cell-based, Homo sapiens. The following applies: Homo sapiens, Lu-65.
The test system of the next test is MZ1-PC. Kind of test: cells. Conditions: Homo sapiens, MZ1-PC. Format: functional, cell-based, Homo sapiens.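 Note: cell viability assay measuring growth inhibition of human MZ1-PC cells.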
The test system of another test is NB1. Kind of test: cells. Format: functional, cell-based, Homo sapiens. Conditions: Homo sapiens, NB1.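 Note: reduction of NB1 cell proliferation, read out with a viability assay.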
A further test concerns NB6. Put plainly: cells. Format: functional, cell-based, Homo sapiens. The following applies: Homo sapiens, NB6.
Another test deals with NB69. Kind of test: cells. Format: functional, cell-based, Homo sapiens. Conditions: Homo sapiens, NB69.
For a further test, the system named is NCI-H1522. Kind of test: cells. Format: functional, cell-based, Homo sapiens. The following applies: Homo sapiens, NCI-H1522.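 Note: growth inhibition of NCI-H1522 cells, read out with a cell viability assay.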
The test system of the next test is NCI-H1882. Kind of test: cells. Format: functional, cell-based, Homo sapiens. The following applies: Homo sapiens, NCI-H1882.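 Note: growth inhibition of the cell line, determined with a viability assay.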
The test system of a further test is SNU-16. Put plainly: cells. Format: functional, cell-based, Homo sapiens. The following applies: Homo sapiens, SNU-16.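 Note: growth inhibition of human SNU-16 cells, determined with a cell viability readout.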
In another test the test system is RPMI-8226. Kind of test: cells. Format: functional, cell-based, Homo sapiens. Conditions: Homo sapiens, RPMI-8226.
The subject of a further test is RPMI 8402. Put plainly: SANGER: Inhibition of human RPMI-8402 cell growth in a cell viability assay. Format: functional, cell-based. Conditions: Homo sapiens, RPMI 8402.
The next test relates to SH-4. Kind of test: cells. Format: functional, cell-based, Homo sapiens. The following applies: Homo sapiens, SH-4.
The next test concerns SNU-C1. Kind of test: cells. Format: functional, cell-based, Homo sapiens. The following applies: Homo sapiens, SNU-C1.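 Note: growth inhibition of SNU-C1 human cells, read out by a cell viability assay.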
The test system of the next test is C2BBe1. Kind of test: cells. Format: functional, cell-based, Homo sapiens. The following applies: Homo sapiens, C2BBe1.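 Note: growth inhibition of C2BBe1 cells, read out through a viability assay.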

Description for C2BBe1: SANGER: Inhibition of human C2BBe1 cell growth in a cell viability assay.
Description for COLO-824: SANGER: Inhibition of human COLO-824 cell growth in a cell viability assay.
Description for CP66-MEL: SANGER: Inhibition of human CP66-MEL cell growth in a cell viability assay.
Description for DMS-79: SANGER: Inhibition of human DMS-79 cell growth in a cell viability assay.
Description for DU-4475: SANGER: Inhibition of human DU-4475 cell growth in a cell viability assay.
Description for ES1: SANGER: Inhibition of human ES1 cell growth in a cell viability assay.
Description for ES3: SANGER: Inhibition of human ES3 cell growth in a cell viability assay.
Description for HCC2218: SANGER: Inhibition of human HCC2218 cell growth in a cell viability assay.
Description for HL-60: SANGER: Inhibition of human HL-60 cell growth in a cell viability assay.
Description for LAMA-84: SANGER: Inhibition of human LAMA-84 cell growth in a cell viability assay.
Description for LB996-RCC: SANGER: Inhibition of human LB996-RCC cell growth in a cell viability assay.
Description for LU-165: SANGER: Inhibition of human LU-165 cell growth in a cell viability assay.
Description for Lu-65: SANGER: Inhibition of human LU-65 cell growth in a cell viability assay.
Description for MZ1-PC: SANGER: Inhibition of human MZ1-PC cell growth in a cell viability assay.
Description for NB1: SANGER: Inhibition of human NB1 cell growth in a cell viability assay.
Description for NB69: SANGER: Inhibition of human NB69 cell growth in a cell viability assay.
Description for NCI-H1522: SANGER: Inhibition of human NCI-H1522 cell growth in a cell viability assay.
Description for NCI-H1882: SANGER: Inhibition of human NCI-H1882 cell growth in a cell viability assay.
Description for RPMI-8226: SANGER: Inhibition of human RPMI-8226 cell growth in a cell viability assay.
Description for SH-4: SANGER: Inhibition of human SH-4 cell growth in a cell viability assay.
Description for SNU-16: SANGER: Inhibition of human NCI-SNU-16 cell growth in a cell viability assay.
Description for SNU-C1: SANGER: Inhibition of human SNU-C1 cell growth in a cell viability assay.

As to `CCN(CC)CCNC(=O)c1c(C)[nH]c(/C=C2\C(=O)Nc3ccc(F)cc32)c1C` [SUNITINIB], the IC50 in the test on COLO-824 was above 8000 nM; in the test with CP66-MEL, above 8000 nM; in the test on DMS-79, above 8000 nM; with DU-4475, 4370 nM; in the test on ES1, above 8000 nM; in the test on ES3, above 8000 nM. Also, the IC50 in the test with HCC2218 is above 8000 nM; in the test with HL-60, 4210 nM; in the test on LAMA-84, 2700 nM; in the test with LB996-RCC, 4120 nM; with LU-165 it was above 8000 nM; with Lu-65, above 8000 nM. For the same molecule, the IC50 with MZ1-PC is 7300 nM; with NB1, 1960 nM; with NB6, above 8000 nM; in the test with NB69, above 8000 nM; in the test with NCI-H1522, above 8000 nM; in the test with NCI-H1882, above 8000 nM. Moreover, the IC50 is 1460 nM with SNU-16; 7510 nM with RPMI-8226; 2340 nM in the test on RPMI 8402 (read-out: IC50); 5480 nM in the test on SH-4; above 8000 nM with SNU-C1; above 8000 nM with C2BBe1.
As for `COc1cc(N2CCN(C)CC2)ccc1Nc1ncc2c(n1)N(C)c1ccccc1C(=O)N2C`, the IC50 in the test with COLO-824, in the test on CP66-MEL, with DMS-79, in the test on DU-4475, in the test with ES1 and with ES3 was above 8000 nM throughout. Moreover, the IC50 is above 8000 nM with HCC2218; 5140 nM with HL-60; above 8000 nM with LAMA-84; 5370 nM in the test with LB996-RCC; above 8000 nM in the test with LU-165; above 8000 nM in the test on Lu-65. Also, the IC50 with MZ1-PC is above 8000 nM; with NB1, above 8000 nM; with NB6, above 8000 nM; in the test on NB69, 7850 nM; with NCI-H1522, above 8000 nM; in the test on NCI-H1882 it was above 8000 nM. Further, the IC50 in the test on SNU-16 was above 8000 nM; in the test on RPMI-8226, above 8000 nM; with RPMI 8402 (read-out: IC50), 4500 nM; in the test on SH-4 it was 1990 nM; with SNU-C1, above 8000 nM; in the test on C2BBe1, above 8000 nM.
For `OCCCNc1cc(-c2ccnc(Nc3cccc(Cl)c3)n2)ccn1`, the IC50 is above 256 nM with COLO-824; above 256 nM in the test on CP66-MEL; above 256 nM with DMS-79; 140 nM with DU-4475; above 256 nM in the test with ES1; above 256 nM in the test on ES3. Moreover, the IC50 is above 256 nM with HCC2218; above 256 nM with HL-60; 203 nM with LAMA-84; 32.5 nM in the test on LB996-RCC; above 256 nM with LU-165; above 256 nM with Lu-65. The IC50 in the test with MZ1-PC is 42.7 nM; in the test on NB1, 84.3 nM; with NB6, above 256 nM; with NB69, above 256 nM; in the test with NCI-H1522, above 256 nM; with NCI-H1882, above 256 nM. In addition, the IC50 in the test on SNU-16 is 136 nM; with RPMI-8226, 129 nM; in the test on RPMI 8402 (read-out: IC50), 70.9 nM; in the test on SH-4 it was above 256 nM; with SNU-C1, above 256 nM; in the test on C2BBe1 it was 154 nM.
Consider `COc1cc2ncn(-c3cc(OCc4ccccc4C(F)(F)F)c(C(N)=O)s3)c2cc1OC` [GW843682X], for which the IC50 in the test on COLO-824 is above 256 nM; with CP66-MEL, 162 nM; with DMS-79, above 256 nM; in the test with DU-4475, 80 nM; in the test with ES1, 25 nM; with ES3, above 256 nM. Moreover, the IC50 in the test on HCC2218 was above 256 nM; with HL-60, 25.2 nM; in the test with LAMA-84, 39.9 nM; in the test with LB996-RCC, 104 nM; in the test with LU-165 it was above 256 nM; in the test with Lu-65, above 256 nM. The IC50 is 22.2 nM with MZ1-PC; 35.1 nM in the test with NB1; 142 nM with NB6; above 256 nM in the test on NB69; above 256 nM with NCI-H1522; 43.7 nM with NCI-H1882. The IC50 was 20.5 nM with SNU-16; 28.1 nM in the test on RPMI-8226; 4.67 nM in the test with RPMI 8402 (read-out: IC50); 123 nM in the test with SH-4; above 256 nM with SNU-C1; above 256 nM in the test on C2BBe1.
On to `CC(=O)O[C@H]1C(=O)[C@@]2(C)[C@H]([C@H](OC(=O)c3ccccc3)[C@]3(O)C[C@H](OC(=O)[C@H](O)[C@@H](NC(=O)c4ccccc4)c4ccccc4)C(C)=C1C3(C)C)[C@]1(OC(C)=O)CO[C@@H]1C[C@@H]2O` [PACLITAXEL], for which the half-maximal inhibitory concentration (IC50) in the test with COLO-824 is above 102 nM; with CP66-MEL, above 102 nM; in the test with DMS-79, above 102 nM; with DU-4475, 42.4 nM; with ES1, 12.9 nM; in the test on ES3, above 102 nM. Further, the IC50 in the test with HCC2218 is above 102 nM; with HL-60 it was 9.66 nM; in the test on LAMA-84, above 102 nM; in the test with LB996-RCC, 77.1 nM; in the test on LU-165 it was above 102 nM; in the test with Lu-65 it was above 102 nM. Besides, the IC50 in the test with MZ1-PC was 0.729 nM; in the test with NB1, 26.9 nM; in the test with NB6, above 102 nM; in the test on NB69, above 102 nM; in the test with NCI-H1522, above 102 nM; in the test with NCI-H1882, 64.2 nM. Further, the IC50 in the test with SNU-16 is 10.1 nM; in the test on RPMI-8226 it was 11 nM; in the test with RPMI 8402 (read-out: IC50), 12.6 nM; in the test with SH-4, 18.9 nM; with SNU-C1, above 102 nM; with C2BBe1, above 102 nM.
Regarding `COc1cc(-c2nn([C@H]3CC[C@H](N4CCN(C(C)=O)CC4)CC3)c3ncnc(N)c23)ccc1NC(=O)c1cc2ccccc2n1C`, the IC50 in the test on COLO-824, with CP66-MEL, in the test on DMS-79, with DU-4475, with ES1 and with ES3 was above 5120 nM in each case. Moreover, the half-inhibitory concentration (IC50) with HCC2218 is above 5120 nM; in the test with HL-60, above 5120 nM; in the test on LAMA-84, 147 nM; in the test on LB996-RCC, 74.6 nM; in the test with LU-165, above 5120 nM; in the test with Lu-65, above 5120 nM. The IC50 was 595 nM with MZ1-PC; above 5120 nM with NB1; above 5120 nM with NB6; 3290 nM in the test with NB69; above 5120 nM with NCI-H1522; above 5120 nM in the test on NCI-H1882. The IC50 is above 5120 nM with SNU-16; above 5120 nM in the test with RPMI-8226; above 5120 nM in the test with RPMI 8402 (read-out: IC50); 913 nM with SH-4; above 5120 nM with SNU-C1; 757 nM with C2BBe1.
`CC[C@H](CO)Nc1nc(NCc2ccccc2)c2ncn(C(C)C)c2n1` [SELICICLIB]: the IC50 in the test with COLO-824, with CP66-MEL, in the test on DMS-79, in the test with DU-4475, in the test on ES1 and in the test with ES3 was above 16000 nM each time. The IC50 with HCC2218, in the test on HL-60, in the test with LAMA-84, in the test on LB996-RCC, in the test on LU-165 and in the test with Lu-65 was above 16000 nM in each case. In addition, the IC50 in the test on MZ1-PC was above 16000 nM; with NB1 it was 12300 nM; in the test on NB6, above 16000 nM; in the test with NB69, above 16000 nM; with NCI-H1522 it was above 16000 nM; in the test with NCI-H1882, above 16000 nM. Further, the IC50 was above 16000 nM in the test on SNU-16; above 16000 nM in the test with RPMI-8226; 13600 nM in the test on RPMI 8402; above 16000 nM with SH-4; above 16000 nM in the test with SNU-C1; above 16000 nM with C2BBe1.

In general, IC50 refers to the concentration at which inhibition is half-maximal.
